Results published in US4409221A, “1,2,3,4,4a,9b-Hexahydro-4a-piperazinylmethyl-4-dibenzofuranone or -dibenzofuranol derivatives” (Riom Laboratories - Cerm S.A., priority 1981, dated 1983).
Where a name gives a salt, the structure may show the parent alone.

Columns and labels:
[1] = tested on: histamine type bronchospasms; test: anti-bronchoconstrictor activity in guineapigs, KONZETT and ROSSLER technique, histamine-induced bronchospasm; format: in vivo; details: histamine 5 μg/kg^-1 i.v.; for inhibition at 1 mg/kg / inhibition at 5 mg/kg: iv, anaesthetised guineapigs, read-out: Percentage Inhibition
Method: (§1) The anti-bronchoconstrictor activity of the compounds of the invention is evaluated in guineapigs by the KONZETT and ROSSLER technique.
(§2) After being anaesthetised with ethyl carbamate and submitted to tracheotomy, the animals are given artificial breathing at constant volume and the intertracheal pressure is recorded, which makes an indirect measurement of the total pulmonary resistance possible. Histamine (5 μg/kg^-1 i.v.) is administered before, and at different time intervals after, intravenous administration of the compounds of the invention.
(§3) The activity of the product under study is evaluated by comparing the amplitudes of the bronchospasms before and after treatment and calculating the percentage change. The duration of action of the compounds under study has also been observed. (Table I). This table also contains an acute toxicity rating (LD50) determined by oral administration in mice.

[2] = tested on: serotoninergic bronchospasms; test: bronchospasm experiment repeated replacing histamine with serotonin; format: in vivo, guineapigs; details: iv, 1 h; compound 5 mg/kg^-1 intravenously; serotonin 20 μg/kg^-1 I.V.; observed during 60 minutes
Method: as §1, §2, §3
In addition, the bronchosparm experiment was repeated, but replacing histamine with serotonine, (20 μg/kg^-1, I.V.).

[3] = acute toxicity rating (LD50) by oral administration in mice; details: mouse, in vivo
Method: as §3

Row | SMILES | Duration (duration of action) ([1]; compound 1 mg/kg^-1 I.V.) [min] | Duration (duration of action) ([1]; compound 5 mg/kg^-1 I.V.) [min] | inhibition at 1 mg/kg ([1]; compound 1 mg/kg^-1 I.V.) [%] | inhibition at 5 mg/kg ([1]; compound 5 mg/kg^-1 I.V.) [%] | inhibition at 5 mg/kg [2] [%] | LD50 [3] [mg/kg]
1 | CCOC(CN1CCN(CC23Oc4ccccc4C2CCCC3O)CC1)c1ccccc1 (centres unmarked) [Compound 1, 1,2,3,4,4a,9b-hexahydro-4a-(1-[4-(2-ethoxy-2-phenyl)ethyl]piperazinyl)methyl-4-dibenzofuranol] | > 60 | > 60 | 87.7 ± 6.6 | 100 | 87.6 | –
2 | CCOC(CN1CCN(CC23Oc4ccc(F)cc4C2CCCC3O)CC1)c1ccccc1 (centres unmarked) [Compound 2, 1,2,3,4,4a,9b-hexahydro-4a-(1-[4-(2-ethoxy-2-phenyl)ethyl]piperazinyl)methyl-8-fluoro-4-dibenzofuranol, 2 HCl] | – | > 60 | – | 95 ± 3.1 | – | 900
3 | CCOC(CN1CCN(CC23Oc4c(OC)cccc4C2CCCC3=O)CC1)c1ccccc1 (centres unmarked) [Compound 3] | – | > 45 | – | 97.5 ± 2.5 | – | 320
4 | CCOC(CN1CCN(CC23Oc4ccccc4C2CCCC3=O)CC1)c1ccccc1 (centres unmarked) [Compound 5, 1,2,3,4,4a,9b-hexahydro-4a-(1-[4-(2-ethoxy-2-phenyl)ethyl]piperazinyl)methyl-4-dibenzofuranone] | – | > 45 | – | 80.2 ± 9.9 | – | 900
5 | CCOC(CN1CCN(CC23Oc4ccc(OC)cc4C2CCCC3O)CC1)c1ccccc1 (centres unmarked) [Compound 6] | – | > 45 | – | 48.2 ± 9.2 | – | 900
6 | COC(CN1CCN(CC23Oc4ccccc4C2CCCC3O)CC1)c1ccccc1 (centres unmarked) [Compound 8] | > 60 | – | 95.5 ± 4.6 | – | – | 480
